Literature values, collected in patent publication US20080226653A1, “Inhibition of Platelet Aggregation” (THE UNIVERSITY OF MANITOBA, priority 2006, published 2008).

Conditions: clinical trials (Patrono et al., 1993)

## CC(=O)Oc1ccccc1C(=O)O [aspirin, Aspirin]
  efficacy in preventing chronic complications in diabetic patients: only limited efficacy
